Source: PMC7956753, “Development of ^18F-Labeled Radiotracers for PET Imaging of the Adenosine A2A Receptor: Synthesis, Radiolabeling and Preliminary Biological Evaluation” (International Journal of Molecular Sciences, 2021)

Columns and labels:
[1] = In vivo metabolism (radiometabolite analysis of plasma and brain by radio-HPLC); conditions: CD-1 mice, i.v., 30 min p.i., n = 2
Protocol: The radiotracer was administered i.v. as bolus in awake CD-1 mice (40 MBq [^18F]PPY1; 30 MBq [^18F]PPY2; n = 2, respectively). At 30 min post injection (p.i.), blood samples were taken retroorbitally from the anesthetized animals. Plasma was separated by centrifugation at 8000 rpm at RT for 1 min (Centrifuge 5418, Eppendorf Vertrieb Deutschland GmbH, Wesseling-Berzdorf, Germany), and brain homogenized in 1 mL water on ice (10 strokes of a PTFE plunge at 1000 rpm in a borosilicate glass cylinder; Potter S Homogenizer; B. Braun Melsungen AG, Melsungen, Germany). For protein precipitation and extraction an ice-cold mixture of acetone/water (4/1; v/v) was used in a ratio of 4:1 (v/v) of solvent to plasma or brain homogenate, respectively. The samples were vortexed for 3 min, equilibrated on ice for 5 min, and centrifuged for 5 min at 10,000 rpm. After separating the supernatant, the precipitates were washed with 100 µL of the solvent mixture and subjected to the same procedure. The combined supernatants were concentrated at 75 °C under nitrogen flow to a final volume of approx. 100 µL and analyzed by analytical radio-HPLC (see section quality control). To determine the percentage of activity in the supernatants compared to total activity, aliquots of each step as well as the precipitates were quantified by a gamma counter (Wallac Wizard 1480; PerkinElmer, Turku, Finland).

A2AR = biological target: T1, A2AR (Mus musculus, UniProt Q60613); assay: In vitro autoradiography on mouse brain slices; assay type: binding, CD-1 mice; conditions: for fraction of total binding displaced by ZM241385 in striatum (specific binding): 10 µM ZM241385
T1 construct: Brains of CD-1 mice frozen in isopentane were cut using a cryostat; from tissue; host or cells: CD-1 mouse brain sections
T1 sequence (Q60613 whole entry): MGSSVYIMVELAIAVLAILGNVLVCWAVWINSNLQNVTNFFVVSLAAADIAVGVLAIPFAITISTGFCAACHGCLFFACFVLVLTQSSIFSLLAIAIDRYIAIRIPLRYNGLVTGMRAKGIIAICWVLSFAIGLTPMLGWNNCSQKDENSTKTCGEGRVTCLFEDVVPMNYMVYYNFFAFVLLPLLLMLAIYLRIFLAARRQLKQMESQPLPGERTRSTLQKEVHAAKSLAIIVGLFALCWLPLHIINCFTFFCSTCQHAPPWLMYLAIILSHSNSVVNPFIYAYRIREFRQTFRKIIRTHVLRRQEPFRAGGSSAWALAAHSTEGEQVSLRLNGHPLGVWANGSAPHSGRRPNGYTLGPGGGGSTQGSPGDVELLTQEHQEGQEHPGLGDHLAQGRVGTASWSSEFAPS
Protocol: Brains of CD-1 mice frozen in isopentane were cut using a cryostat, thaw-mounted onto microscope slides, and after air-drying stored at −80 °C until use. Briefly, the brain sections were dried in a stream of cold air, and pre-incubated in 50 mM TRIS-HCl buffer (pH 7.4, 100 mM NaCl, 5 mM MgCl2, 1 mM EDTA) containing 1 µU/mL adenosine deaminase (ADA) for 15 min at RT. Afterwards, brain sections were incubated with 0.24 MBq/mL of [^18F]PPY1 (0.2 nM) or 0.26 MBq/mL of [^18F]PPY2 (5.1 nM) in buffer for 90 min at RT. Non-specific binding was determined in the presence of 10 µM ZM241385. Displacement of both radiotracers was evaluated with 10 µM PPY1 and PPY2, respectively. Subsequently, the sections were washed twice for 5 min in ice-cold TRIS-HCl buffer, and dipped for 5 s in ice-cold deionized water. The sections were rapidly dried in a stream of cold air before being exposed overnight on an imaging plate. Developed autoradiographs were analyzed in a phosphor imager (HD-CR 35, Duerr NDT GmbH, Bietigheim-Bissingen, Germany). Quantification was performed by using 2D-densitometric analysis (AIDA 2.31 software, raytest Isotopenmessgeräte GmbH, Straubenhardt, Germany).

[2] = PET/MR imaging (brain uptake and organ distribution); assay type: in vivo; conditions: CD-1 mice; for SUV60 min bladder / SUV60 min small intestine: 60 min; for maximum SUV ratio of striatum-to-cerebellum: after 4 min; for initial brain uptake, standardized uptake value (SUV): between 2 and 3 min; for initial uptake in striatum and cerebellum: followed by a fast washout
Protocol: For the time of the experiments, CD-1 mice were kept in a dedicated climatic chamber with free access to water and food under a 12:12 h dark:light cycle at a constant temperature (24 °C). The animals were anaesthetized (anesthesia unit U-410; agntho’s; Lidingö; Sweden) with isoflurane (1.8%, 0.35 L/min) delivered in a 60% oxygen/40% air mixture (Gas Blender 100 Series, MCQ instruments, Rome, Italy) and maintained at 37 °C with a thermal bed system. The formulated radiotracer was injected into the tail vein ([^18F]PPY1: 3.2–4.3 MBq in 150 µL isotonic saline and <1% EtOH/DMSO; Am: 150 GBq/µmol; […]; Am: 80 GBq/µmol) followed by a 60 min PET/MR scan (PET/MR 1Tesla; nanoScan®, MEDISO Medical Imaging Systems, Budapest, Hungary). Each PET image was corrected for random coincidences, dead time, scatter and attenuation (AC), based on a whole body (WB) MR scan. The list mode data was sorted into sinograms using a framing scheme of 12 × 10 s, 6 × 30 s, 5 × 300 s, […]. The reconstruction parameters for the list mode data were 3D-ordered subset expectation maximization (OSEM), 4 iterations, 6 subsets, energy window: 400–600 keV, coincidence mode: 1–5, ring difference: 81. The mice were positioned prone in a special mouse bed (heated up to 37 °C), with the head fixed to a mouth piece for the anesthetic gas supply with isoflurane in 40% air and 60% oxygen (anesthesia unit: U-410, agnthos, Lidingö, Sweden; Gas blender: MCQ, Rome, Italy). The PET data were collected by a continuous WB scan during the entire investigation. Following the 60 min PET scan a T1 weighted WB gradient echo sequence (TR/TE: 20/6.4 ms, NEX: 1, FA: 25, FOV: 64 × 64 mm, matrix: 128 × 128, slice thickness: 0.5 mm) was performed for AC and anatomical orientation. Image registration and evaluation of the volume of interest (VOI) was done with PMOD 3.9 (PMOD technologies LLC, Zurich, Switzerland). The respective brain regions were identified using the mouse brain atlas template Ma-Benveniste-Mirrione-FDG. Spherical VOI with diameters of 1 to 2 mm were placed at the center of the liver, stomach, and spleen. Small intestine, kidney, and bladder VOI were delineated from the PET signal. Heart wall and blood were delineated from the T1 weighted image avoiding spill over from neighboring organs. The activity data is expressed as mean SUV of the overall VOI.

[3] = Lipophilicity (LogD7.4), shake-flask method in n-octanol/PBS; assay type: physicochemical; conditions: pH 7.4, n-octanol-PBS, RT, n = 3
Protocol: (§1) The chemical stability of [^18F]PPY1 and [^18F]PPY2 was investigated in isotonic saline, phosphate-buffered saline (PBS, pH 7.4) and n-octanol by incubation at 37 °C. Samples were taken at 15, 30 and 60 min of incubation time and analyzed by radio-TLC and radio-HPLC. LogD7.4 values of [^18F]PPY1 and of [^18F]PPY2 were experimentally determined in n-octanol/PBS at RT by the shake-flask method. The measurements were performed in triplicate.

[4] = In vitro chemical stability in saline, PBS and n-octanol; assay type: physicochemical; conditions: 37 °C up to 60 min
Protocol: as §1

| Structure (SMILES) | intact radiotracer in plasma, of total activity [1] | distribution of radiotracer binding in mouse brain (A2AR) | fraction of total binding displaced by ZM241385 in striatum (specific binding) (A2AR) | initial SUV in heart, spleen, stomach and liver [2] | specific binding in striatum in vivo (PET) [2] | SUV60 min bladder [2] | SUV60 min small intestine [2] | maximum SUV ratio of striatum-to-cerebellum [2] | initial brain uptake, standardized uptake value (SUV) [2] | initial uptake in striatum and cerebellum [2] | logD [3] | Stability in saline, PBS and n-octanol [4] | intact radiotracer in brain, of total activity [1] | intact radiotracer in brain, of total activity ([1]; listed as [18F]PPY2) |
| --- | --- | --- | --- | --- | --- | --- | --- | --- | --- | --- | --- | --- | --- | --- |
| Nc1nc(-c2ccco2)c2cnn(Cc3ccc([18F])cc3)c2n1 [[^18F]PPY1] | 13% | displaceable binding was detected in various brain regions | 42% | < 3 SUV | lack of specific binding | 8.2 SUV | 21.9 SUV | 1.5 | 1.2–1.4 SUV | ~ 1.3 SUV | 1.59 ± 0.15 | proven | – | – |
| Nc1nc(-c2ccco2)c2cnn(Cc3ccccc3[18F])c2n1 [[^18F]PPY2] | 21% | observed in the striatum | 62% | < 3 SUV | lack of specific binding | 18.5 SUV | 6.7 SUV | 1.3 | 1.2–1.4 SUV | ~ 1.3 SUV | 2.01 ± 0.16 | proven | 83% | more than 76% |
